# From patent publication US20060062863A1, “Compositions for anti-obesity, health-restorative and health-promotional benefits” (priority 2004, published 2006)
# Test: Food intake and body weight in haloperidol-treated albino rats
# Assay type: in vivo
# Conditions: for % change in body weight: day-21 vs initial value; for % change in food intake: during the 21-day period vs initial value
# Text: The results of administration of the Type-I saponins or the total extractives (comprising Type-I to -III compounds) of Chlorophytum arundinaceum on the attendant changes in the food intake and body weight of albino rats (270±20 grams) are given in Table-1. Administration of haloperidol causes obesity as it appreciably increases food intake and induces rapid weight gain. The feeder contained at least three times more pellets than are normally consumed. Food intake and the body weight were assessed for one week in all rats prior to initiation of administration of the test compound(s). Both Type-I saponins and the total extractives annulled the gluttonous craving for food due to haloperidol with appreciable decrease in weight gain, compared to the haloperidol group. […] Sibutramine is used as a recognized anorexic drug.
# [1] = haloperidol 20 mg/Kg i.p. once daily for 21 days, alone
# [2] = 10 mg/Kg p.o. once daily for 21 days + haloperidol 20 mg/Kg i.p.
SMILES,% change in body weight [1],% change in food intake [1],% change in body weight [2],% change in food intake [2]
O=C(CCCN1CCC(O)(c2ccc(Cl)cc2)CC1)c1ccc(F)cc1 [Haloperidol],+35.13%,+45.32%,–,–
CC(C)CC(N(C)C)C1(c2ccc(Cl)cc2)CCC1 (stereo not shown) [Sibutramine],–,–,+0.28%,−0.37%
